Measured values published in US10464957B2, “Oxidized lipids and methods of use thereof” (Vascular Biogenics Ltd., priority 2014, dated 2019).

Key:
[1] = tested on: MCP-1-induced signaling in human monocytes (THP-1 cell line); assay: MCP-1-induced signaling, western blot; format: cell-based; conditions: 20 min pretreatment, 50 ng/ml MCP1, THP-1
Description: THP-1 cells (10^6/ml) were pretreated for 20 min with VB-201 or VB-701 at the doses indicated in FIG. 4, or with solvent, followed by activation with 50 ng/ml MCP1, or were untreated (“Unt”). Cells were washed and resuspended in lysis buffer containing 1:100 dithiothreitol (DTT), phosphatase and protease inhibitors (Thermo Scientific). Samples were loaded onto a precast Criterion TGX gel (Bio-Rad, Hemel Hempstead, UK) and transferred onto nitrocellulose membrane. Blots were blocked with 5% milk or BSA in Tris buffered saline and Tween 20 (TBST) for 1 h, followed by incubation with primary and secondary antibodies. Membranes were developed using an ECL kit (Thermo Scientific). The following antibodies were used for immunoblotting:
Primary antibodies: p-ERK1/2 (Cat. No. M8159; 1:10000) was purchased from Sigma (Israel). p-AKT (Cat. No. 4060; 1:1000) was purchased from Cell Signaling Technology (Danvers, Mass.). αTubulin served as a loading control and was purchased from Sigma (Israel).
(§1) Secondary antibodies: HRP donkey anti-rabbit (1:5000) and HRP goat anti-mouse (1:3000) were from Jackson ImmunoResearch (West Grove, Pa., USA). HRP donkey anti-goat (1:5000) was from Santa Cruz Biotechnology.

[2] = tested on: LPS (TLR4)-induced signaling in human monocytes (primary CD14+); assay: LPS (TLR4)-induced signaling, western blot; format: cell-based; conditions: western blot; for formation of p-IKK, p-ERK and p-p38 induced by LPS: 20 min pretreatment, 15 min activation with 100 ng/ml LPS
Description: (§2) Venous blood samples were obtained from healthy male donors in compliance with the Institutional Review Board at the Sheba Medical Center, Ramat Gan, Israel. PBMCs were isolated on Ficoll-Paque PLUS (GE Healthcare, Uppsala, Sweden) using 50 ml Leucosep tubes (Greiner Bio-One, Frickenhausen, Germany). Cells were washed in PBS (Kibbutz Beit Haemek, Israel) and incubated at 4° C. for 15 minutes in a buffer containing PBS and 0.5% bovine serum albumin (BSA) with human CD14 microbeads (Miltenyi Biotec, Bergisch Gladbach, Germany).
(§3) Cells (10^6/ml) were pretreated for 20 min with VB-201 (1-hexadecyl-2-(4′-carboxy)butyl-glycero-3-phosphocholine or 1-hexadecyl-2-(4′-carboxybutyl)-glycerol-3-phosphocholine) or VB-701 at the doses indicated in FIG. 2, or with solvent (Sol), followed by 15 min activation with 100 ng/ml lipopolysaccharide (LPS) or were untreated (Unt). Cells were washed and resuspended in lysis buffer containing 1:100 dithiothreitol (DTT), phosphatase and protease inhibitors (Thermo Scientific). Samples were loaded onto a precast Criterion TGX gel (Bio-Rad, Hemel Hempstead, UK) and transferred onto nitrocellulose membrane. Blots were blocked with 5% milk or BSA in Tris buffered saline and Tween 20 (TBST) for 1 h, followed by incubation with primary and secondary antibodies. Membranes were developed using an ECL kit (Thermo Scientific). The following antibodies were used for immunoblotting:
(§4) Primary antibodies: p-p38 (Cat. No. 4511; 1:1000) and p-IKK (Cat. No. 2697; 1:1000) were from Cell Signaling Technology (Danvers, Mass., USA). p-ERK1/2 (Cat. No. M8159; 1:10000) was purchased from Sigma (Israel). αTubulin (Tub) served as a loading control.
as §1
as §3, with “VB-201” for “VB-201 (1-hexadecyl-2-(4′-carboxy)butyl-glycero-3-phosphocholine”, “VB-703” for “1-hexadecyl-2-(4′-carboxybutyl)-glycerol-3-phosphocholine) or VB-701 at the doses indicated in FIG. 2, or with solvent (Sol),”, “LPS.” for “lipopolysaccharide (LPS) or were untreated (Unt).”
as §4, with “Heat shock protein (HSP) 90 (Cat. No. 13119; 1:500) was from Santa Cruz Biotechnology (Santa Cruz, Calif., USA).” for “αTubulin (Tub) served as a loading control.”

[3] = tested on: PGN (TLR2)-induced signaling in human monocytes (THP-1 cell line); assay: PGN (TLR2)-induced signaling, western blot; format: cell-based; conditions: 20 min pretreatment, 20 μg/ml PGN for 15 minutes
Description: The monocytic THP-1 cell line was purchased from the American Type Tissue Culture Collection (ATCC Cat. No. TIB-202). Cells (10^6/ml) were pretreated for 20 min with VB-201 or VB-701 at the doses indicated in FIG. 3, or with solvent, followed by activation with 20 μg/ml peptidoglycan (PGN) (InvivoGen, San Diego, Calif.) for 15 minutes, or were untreated (“Unt”). Cells were washed and resuspended in lysis buffer containing 1:100 dithiothreitol (DTT), phosphatase and protease inhibitors (Thermo Scientific). Samples were loaded onto a precast Criterion TGX gel (Bio-Rad, Hemel Hempstead, UK) and transferred onto nitrocellulose membrane. Blots were blocked with 5% milk or BSA in Tris buffered saline and Tween 20 (TBST) for 1 h, followed by incubation with primary and secondary antibodies. Membranes were developed using an ECL kit (Thermo Scientific). The following antibodies were used for immunoblotting:
Primary antibodies: p-p38 (Cat. No. 4511; 1:1000) and p-IKK (Cat. No. 2697; 1:1000) were from Cell Signaling Technology (Danvers, Mass., USA). p-ERK1/2 (Cat. No. M8159; 1:10000) was purchased from Sigma (Israel). αTubulin served as a loading control.
as §1

[4] = tested on: human monocytes (primary CD14+); assay: Chemokine-induced cell migration trans-well assay; format: cell-based; conditions: RANTES 100 ng/ml and MCP-1 50 ng/ml, 2-4 hours, FACS count
Description: as §2
Cells (10^6/ml) were pretreated for 20 min with VB-201 or VB-701 at the doses indicated in FIG. 5, or with solvent (Sol).
To test for chemokine-induced cell migration, RANTES (100 ng/ml; Cat. No. 300-06, PeproTech, Israel) and MCP-1 (50 ng/ml; Cat. No. 300-04, PeproTech, Israel) were dissolved in RPMI-1640 medium supplemented with 0.5% fetal bovine serum (FBS) and placed at the lower chamber of QCM 24-well, […], migration assay plates (Corning-Costar, Corning, N.Y.). Cells (3×10^5) were seeded in the upper chamber and incubated for 2-4 hours. Subsequently, the number of cells which migrated to the lower compartment was determined by fluorescence-activated cell sorting (FACS).

[5] = tested on: Pam3CSK4 (TLR2)-stimulated human monocytes (primary CD14+); assay: IL-12/23p40 ELISA, Pam3CSK4 (TLR2)-stimulated monocytes; format: cell-based; conditions: 1 hour pretreatment, 24 hour 300 ng/ml Pam3CSK4, ELISA of supernatant
Description: (§5) Human monocytes were obtained as described in Example 9 and FIG. 9A-9B. Human monocytes were seeded (10^6/ml) and pretreated for 1 hour with VB-201, VB-701 or VB-702, followed by 24 hour activation with 100 ng/ml LPS from Escherichia coli strain 055:B5 (Sigma, Israel) (FIG. 9A) or 300 ng/ml Pam3CSK4 (InvivoGen, San Diego, Calif., USA) (FIG. 9B) to induce cytokine production. IL-12/23p40 concentration in the supernatant was then measured by ELISA (R&D systems, Cat. No. DY1240). Cells activated with solvent (0.5% ethanol in PBS) were used as a control.

[6] = tested on: LPS (TLR4)-stimulated human monocytes (primary CD14+); assay: IL-12/23p40 ELISA, LPS (TLR4)-stimulated monocytes; format: cell-based; conditions: 1 hour pretreatment, 24 hour 100 ng/ml LPS, ELISA of supernatant
Description: as §5

[7] = tested on: RANTES-induced signaling in human monocytes (primary CD14+); assay: RANTES-induced signaling, western blot; format: cell-based; conditions: RANTES 100 ng/ml for 15 minutes
Description: as §3
Human monocytes were obtained, treated and analyzed by western blot as described in Example 9 and FIG. 7, except that cells were induced with RANTES (100 ng/ml; Cat. No. 300-06, PeproTech, Israel) for 15 minutes. […] Accordingly, VB-702 and VB-201 inhibit RANTES-induced signaling in human monocytes (primary CD14+).

[8] = tested on: human monocytes (THP-1 cell line); assay: SDF1-induced cell migration trans-well assay; format: cell-based; conditions: 5 μg/ml, 20 min pretreatment
TLR4 complex = biological target: T1, TLR4 complex (Homo sapiens, UniProt O00206+Q9Y6Y9); assay: LPS binding inhibition assay (biotin-LPS, FACS); conditions: biotin-LPS 100 ng/ml, FACS
T1 construct: endogenous in cells; probably the human primary monocytes of b454
T1 sequence (O00206 24-839): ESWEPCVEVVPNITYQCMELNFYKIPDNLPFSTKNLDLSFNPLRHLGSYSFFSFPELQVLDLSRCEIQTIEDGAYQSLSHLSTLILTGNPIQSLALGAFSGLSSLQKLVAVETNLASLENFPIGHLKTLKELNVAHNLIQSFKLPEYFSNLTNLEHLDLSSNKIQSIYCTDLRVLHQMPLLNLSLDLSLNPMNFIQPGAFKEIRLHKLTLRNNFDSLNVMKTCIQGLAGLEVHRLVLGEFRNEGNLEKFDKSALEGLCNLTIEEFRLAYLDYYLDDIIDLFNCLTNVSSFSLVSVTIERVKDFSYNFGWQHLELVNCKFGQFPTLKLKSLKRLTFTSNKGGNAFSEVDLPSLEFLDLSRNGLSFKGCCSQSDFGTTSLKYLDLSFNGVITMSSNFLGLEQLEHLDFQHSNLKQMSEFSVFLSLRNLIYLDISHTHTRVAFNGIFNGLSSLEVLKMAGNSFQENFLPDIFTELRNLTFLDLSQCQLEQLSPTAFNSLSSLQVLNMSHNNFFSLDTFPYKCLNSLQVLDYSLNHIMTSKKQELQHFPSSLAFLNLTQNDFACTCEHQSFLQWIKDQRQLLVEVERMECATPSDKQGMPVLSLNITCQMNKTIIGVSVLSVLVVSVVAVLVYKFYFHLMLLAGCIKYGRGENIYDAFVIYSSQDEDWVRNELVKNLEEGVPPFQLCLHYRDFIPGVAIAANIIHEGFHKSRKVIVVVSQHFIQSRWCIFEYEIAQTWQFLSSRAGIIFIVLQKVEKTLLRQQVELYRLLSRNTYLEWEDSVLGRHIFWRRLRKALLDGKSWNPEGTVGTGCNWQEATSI
T1 sequence (Q9Y6Y9 17-160 limits assumed): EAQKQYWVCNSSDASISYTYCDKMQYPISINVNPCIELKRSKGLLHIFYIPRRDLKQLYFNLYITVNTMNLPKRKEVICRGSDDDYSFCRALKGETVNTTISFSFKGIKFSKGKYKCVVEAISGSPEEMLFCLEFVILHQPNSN
Description: To assess interference with lipopolysaccharide (LPS) binding, VB-201 or VB-703 were incubated for 20 min with cells (10^6/ml) after which 100 ng/ml of biotin-LPS (InvivoGen) was added for an additional 15 minutes, all at 4° C. Cells were washed, resuspended in FACS buffer and analyzed on a FACS-Calibur device.

LPS-biotin binding to human monocytes (primary CD14+) (TLR4 complex)	Structure (SMILES)	formation of p-AKT and p-ERK induced by MCP1 [1]	formation of p-IKK, p-ERK and p-p38 induced by LPS [2]	formation of p-IKK, p-ERK and p-p38 induced by PGN [3]	chemokine-induced migration of human monocytes [4]	IL-12p40 levels, Pam3CSK4 (TLR2)-stimulated [5]	IL-12p40 levels, LPS (TLR4)-stimulated [6]	formation of p-ERK induced by RANTES [7]	SDF1-induced migration of human monocytes (THP-1 cell line) [8]	formation of p-ERK and p-AKT induced by LPS ([2]; LPS activation)
	CCCCCCCCCCCCCCCCOCC(COP(=O)([O-])OCC[n+]1ccccc1)OCCCCC(=O)O (centres unmarked) [VB-701, 1-hexadecyl-2-(4′-carboxy)butyl-glycero-sn-3-phosphoric acid pyridiniumethyl ester]	inhibit	inhibit	inhibit	inhibit	inhibit	inhibit			
	CCCCCCCCCCCCCCCCCCCCOCC(COP(=O)([O-])OCC[n+]1ccccc1)OCCCCC(=O)O (centres unmarked) [VB-702, 1-eicosanyl-2-(4′-carboxy)butyl-glycero-sn-3-phosphoric acid pyridiniumethyl ester]		inhibit		inhibit	inhibit	inhibit	inhibit		
inhibits	CCCCCCCCCCC(CCCCCCCC)COCC(COP(=O)([O-])OCC[n+]1ccccc1)OCCCCC(=O)OC (centres unmarked) [VB-705, 1-(2′-octyl)dodecyl-2-(4′-carboxymethyl)butyl-glycero-sn-3-phosphoric acid pyridiniumethyl ester]								does not inhibit	inhibit
